For orientation: melting point means the temperature of the solid-liquid transition.

The subject of data set [1] is Na+-dependent Cl−/HCO3− exchanger (NCBE). The data set can be described thus: Inhibition of the Na+-dependent Cl−/HCO3− exchanger (NCBE) in human endothelial cells (pHi recovery, BCECF fluorescence, FLIPR). In kind it is cell-based. The note with it: inhibitor concentration of 10 μM; human endothelial cells (ECV-304); relative to 100% and 0% pHi recovery controls, 50 μM HOE 642 present. The protocol:
Inhibition of the Na^+-dependent Cl^−/HCO3^− exchanger (NCBE) in human endothelial cells
Human endothelial cells (ECV-304) were detached from culture bottles with the aid of trypsin/EDTA buffer (0.05/0.02% in phosphate buffer) and, after centrifugation (100 g, 5 min), taken up in a buffered salt solution (mmol/l: 115 NaCl, 20 NH4Cl, 5 KCl, 1 CaCl2, 1 MgSO4, 20 N-(2-hydroxyethyl)piperazine-N′-2-ethanesulfonic acid (HEPES), 5 glucose and 1 g/l of bovine serum albumin; pH 7.4). This cell suspension was incubated at 37° C. for 20 min with 5 μM BCECF-acetoxymethyl ester. The cells were then washed and resuspended in a sodium- and bicarbonate-free buffer solution (mmol/l: 5 HEPES, 133.8 choline chloride, 4.7 KCl, 1.25 MgCl2, 0.97 K2HPO4, 0.23 KH2PO4, 5 glucose; pH 7.4).
For subsequent fluorescence measurement in an FLIPR (Fluorescent Imaging Plate Reader) 100 μl of this cell suspension having 20,000 cells in each case were pipetted per well into a 96-well microtiter plate and this microtiter plate was centrifuged (100 g, 5 min).
In the FLIPR, 100 μl of buffer solution in each case were then removed from a further pretreated microtiter plate and pipetted into each of the 96 wells of the measurement plate. A bicarbonate- and sodium-containing buffer solution (mmol/l: 5 HEPES, 93.8 NaCl, 40 NaHCO3, 4.7 KCl, 1.25 CaCl2, 1.25 MgCl2, 0.97 Na2HPO4, 0.23 NaH2PO4, 5 glucose; pH 7.4) which contained 50 μM HOE 642 was used for a 100% control, i.e. a recovery of the intracellular pH (pHi) via the NCBE. For a 0% control, i.e. no pHi recovery at all, the bicarbonate-free, sodium-containing buffer solution (mmol/l: 5 HEPES, 133.8 NaCl, 4.7 KCl, 1.25 CaCl2, 1.25 MgCl2, 0.97 Na2HPO4, 0.23 NaH2PO4, 5 glucose; pH 7.4) was employed, to which 50 μM HOE 642 were likewise added. The compounds according to the invention were added to the sodium- and bicarbonate-containing solution in various concentrations.
After addition of the buffer solutions to the dye-loaded, acidified cells in the measurement plate, the rise in the fluorescence intensity which corresponded to a rise in the pHi in each well of the microtiter plate was determined. The kinetics were in this case recorded at 35° C. for a period of 2 minutes.
The increase in the fluorescence intensities for different concentrations of the compounds according to the invention was related to the two controls and from this inhibitory action of the substances was determined.
Residual Activity of the NCBE at an Inhibitor Concentration of 10 μM

Turning to `CCCCc1nc(SC)c(C(=O)OCC)n1Cc1ccc(-c2ccccc2S(=O)(=O)NC#N)cc1` [Example 1, Ethyl 2-butyl-5-methylsulfanyl-3-(2′-cyanoaminosulfonyl-biphenyl-4-ylmethyl)-3H-imidazole-4-carboxylate], the melting point is 111 °C (dec.). In addition, the “Residual activity in % (residual activity of the NCBE)” value (from here on “Residual activity in %”) in data set [1] turned out to be 17.7%.

For `CCCCc1nc(SC)c(C(=O)OCC)n1Cc1ccc(-c2cccc(S(=O)(=O)NC#N)c2)cc1` [Example 2, Ethyl 2-butyl-5-methylsulfanyl-3-(3′-cyanoaminosulfonylbiphenyl-4-ylmethyl)-3H-imidazole-4-carboxylate], in data set [1], the “Residual activity in %” value was found to be 39.6%.

`CCCCc1nc(SC)c(C(=O)OCC)n1Cc1ccc(-c2ccc(S(=O)(=O)NC#N)cc2)cc1` [Example 3, Ethyl 2-butyl-5-methylsulfanyl-3-(4′-cyanoaminosulfonylbiphenyl-4-ylmethyl)-3H-imidazole-4-carboxylate]: the melting point was 244 °C (dec.). Besides, the “Residual activity in %” value in data set [1] was determined as 74.1%.

For `CCCCc1nc(SC)c(C(=O)OCC)n1Cc1cccc(-c2ccccc2S(=O)(=O)NC#N)c1` [Example 4, Ethyl 2-butyl-5-methylsulfanyl-3-(2′-cyanoaminosulfonyl-biphenyl-3-ylmethyl)-3H-imidazole-4-carboxylate], the melting point was 118 °C (dec.). Further, the “Residual activity in %” value in data set [1] is on record as 39.7%.

As for `CCCCc1nc(SC)c(C(=O)OCC)n1Cc1cccc(-c2cccc(S(=O)(=O)NC#N)c2)c1` [Example 5, Ethyl 2-butyl-5-methylsulfanyl-3-(3′-cyanoaminosulfonyl-biphenyl-3-ylmethyl)-3H-imidazole-4-carboxylate], the melting point is 112 °C (dec.). Also, the “Residual activity in %” value in data set [1] is on record as 43.2%.

Consider `CCCCc1nc(SC)c(C(=O)OCC)n1Cc1cccc(-c2ccc(S(=O)(=O)NC#N)cc2)c1` [Example 6, Ethyl 2-butyl-5-methylsulfanyl-3-(4′-cyanoaminosulfonyl-biphenyl-3-ylmethyl)-3H-imidazole-4-carboxylate], for which the melting point was 120 °C (dec.). Besides, the “Residual activity in %” value in data set [1] came to 58.6%.

As for `CCCCc1nc(SC)c(C(=O)OCC)n1Cc1ccccc1-c1ccccc1S(=O)(=O)NC#N` [Example 7, Ethyl 2-butyl-5-methylsulfanyl-3-(2′-cyanoaminosulfonyl-biphenyl-2-ylmethyl)-3H-imidazole-4-carboxylate], the melting point is 105 °C (dec.). The “Residual activity in %” value in data set [1] stood at 72.1%.

In the case of `CCCCc1nc(SC)c(C(=O)OCC)n1Cc1ccccc1-c1cccc(S(=O)(=O)NC#N)c1` [Example 8, Ethyl 2-butyl-5-methylsulfanyl-3-(3′-cyanoaminosulfonyl-biphenyl-2-ylmethyl)-3H-imidazole-4-carboxylate], the melting point is 108 °C (dec.). In addition, in data set [1], the “Residual activity in %” value is on record as 60.8%.

Regarding `CCCCc1nc(SC)c(C(=O)OCC)n1Cc1ccccc1-c1ccc(S(=O)(=O)NC#N)cc1` [Example 9, Ethyl 2-butyl-5-methylsulfanyl-3-(4′-cyanoaminosulfonyl-biphenyl-2-ylmethyl)-3H-imidazole-4-carboxylate], the melting point was 116 °C (dec.). The “Residual activity in %” value in data set [1] amounted to 31.6%.

The compound `CCOC(=O)c1c(SC)nc(C2CC2)n1Cc1ccc(-c2ccccc2S(=O)(=O)NC#N)cc1` [Example 10, Ethyl 2-cyclopropyl-5-methylsulfanyl-3-(2′-cyanoaminosulfonylbiphenyl-4-ylmethyl)-3H-imidazole-4-carboxylate] registered a melting point of more than 260 °C. Also, in data set [1], the “Residual activity in %” value is given as 21.6%.

With `N#CNS(=O)(=O)c1ccccc1-c1ccc(Cn2c(-c3ccccc3)nc(Cl)c2C=O)cc1` [Example 11, 4′-(4-Chloro-5-formyl-2-phenylimidazol-1-ylmethyl)biphenyl-2-sulfonylcyanamide], the “Residual activity in %” value in data set [1] amounted to 15.0%.

With `COc1nc(-c2ccccc2)n(Cc2ccc(-c3ccccc3S(=O)(=O)NC#N)cc2)c1C=O` [Example 12, 4′-(4-Methoxy-5-formyl-2-phenylimidazol-1-ylmethyl)biphenyl-2-sulfonylcyanamide], the “Residual activity in %” value in data set [1] turned out to be 20.8%.

With `CCCCc1ncc(C(=O)OCC)n1Cc1ccc(-c2ccccc2S(=O)(=O)NC#N)cc1` [Example 13, Ethyl 2-butyl-3-(2′-cyanoaminosulfonylbiphenyl-4-ylmethyl)-3H-imidazole-4-carboxylate], the melting point is 121 °C (dec.). For the same compound, the “Residual activity in %” value in data set [1] is recorded as 89.5%.

For the compound `CCCCc1nc(OC)c(C#N)n1Cc1ccc(-c2ccccc2S(=O)(=O)NC#N)cc1` [Example 14, 4′-(2-Butyl-5-cyano-4-methoxyimidazol-1-ylmethyl)biphenyl-2-sulfonylcyanamide], the melting point was 160 °C (dec.). In addition, the “Residual activity in %” value in data set [1] is 47.3%.

Regarding `CCCCc1nc(SC)c(C(=O)OCC)n1Cc1ccc(-c2ccc(S(=O)(=O)NC#N)cc2C(F)(F)F)cc1` [Example 23, Ethyl 2-butyl-5-methylsulfanyl-3-(4′-cyanoaminosulfonyl-2′-trifluoromethylbiphenyl-4-ylmethyl)-3H-imidazole-4-carboxylate], the “Residual activity in %” value in data set [1] worked out at 31.6%.

For `CCCCc1nc(SC)cn1Cc1ccc(-c2ccccc2S(=O)(=O)NC#N)cc1` [Example 27, 4′-(2-Butyl-4-methylsulfanylimidazol-1-ylmethyl)biphenyl-2-sulfonylcyanamide], the “Residual activity in %” value in data set [1] was 50.0%.

In the case of `N#CNS(=O)(=O)c1ccccc1-c1ccc(Cn2cc(Cl)nc2-c2ccccc2)cc1` [Example 28, 4′-(4-Chloro-2-phenylimidazol-1-ylmethyl)biphenyl-2-sulfonylcyanamide], the “Residual activity in %” value in data set [1] was determined as 30.5%.

For the compound `CC(=O)c1c(Cl)nc(-c2ccccc2)n1Cc1ccc(-c2ccccc2S(=O)(=O)NC#N)cc1` [Example 29, 4′-(5-Acetyl-4-chloro-2-phenylimidazol-1-ylmethyl)biphenyl-2-sulfonylcyanamide], the “Residual activity in %” value in data set [1] was found to be 39.6%.

With `COc1nc(-c2ccccc2)n(Cc2ccc(-c3ccccc3S(=O)(=O)NC#N)cc2)c1C(C)=O` [Example 30, 4′-(5-Acetyl-4-methoxy-2-phenylimidazol-1-ylmethyl)biphenyl-2-sulfonylcyanamide], the “Residual activity in %” value in data set [1] was 48.8%.

In the case of `N#CNS(=O)(=O)c1ccccc1-c1ccc(Cn2c(-c3ccccc3)nc(-c3ccccc3)c2-c2ccccc2)cc1` [Example 31, 4′-(2,4,5-Triphenylimidazol-1-ylmethyl)biphenyl-2-sulfonylcyanamide], in data set [1], the “Residual activity in %” value is reported as 36.5%.

For the compound `N#CNS(=O)(=O)c1ccccc1-c1ccc(Cn2c(-c3ccccc3)nc(Cl)c2C=O)c(Cl)c1` [Example 32, 3′-Chloro-4′-(4-chloro-5-formyl-2-phenylimidazol-1-ylmethyl)biphenyl-2-sulfonylcyanamide], the “Residual activity in %” value in data set [1] stood at 7.8%.

Consider `N#CNS(=O)(=O)c1ccccc1-c1ccc(Cn2c(-c3ccccc3)nc(Cl)c2C=O)c(F)c1` [Example 33, 3′-Fluoro-4′-(4-chloro-5-formyl-2-phenyl-imidazole-1-ylmethyl)biphenyl-2-sulfonylcyanamide], for which, in data set [1], the “Residual activity in %” value was determined as 7.6%.

As to `COc1nc(-c2ccccc2)n(Cc2ccc(-c3ccccc3S(=O)(=O)NC#N)cc2Cl)c1C=O` [Example 34, 3′-Chloro-4′-(4-methoxy-5-formyl-2-phenyl-imidazole-1-ylmethyl)biphenyl-2-sulfonylcyanamide], the “Residual activity in %” value in data set [1] stood at 5.5%.

As for `N#CNS(=O)(=O)c1ccccc1-c1ccc(Cn2c(-c3ccccc3)nc(Oc3ccccc3)c2C=O)c(Cl)c1` [Example 35, 3′-Chloro-4′-(4-phenoxy-5-formyl-2-phenyl-imidazole-1-ylmethyl)biphenyl-2-sulfonylcyanamide], in data set [1], the “Residual activity in %” value was found to be 3.2%.

(Values after patent US6335451B1, “Five-membered heterocycles having biphenylsulfonyl substitution, with sulfonylcyanamide side chain, compositions containing them, and methods of using them” (Hoechst Aktiengesellschaft, priority 1997, dated 2002).)
